Data as given in PMC9096165 (Frontiers in Pharmacology, 2022).

How the values were obtained:
[1] = tested on: CYP-induced non-ulcerative IC rat model; test: Mechanical nociceptive abdominal and hind paw test (Von Frey) in chronic CYP-induced non-ulcerative IC/BPS; assay type: in vivo, female Sprague–Dawley rats
Experimental: CYP was administered to the animals by the intraperitoneal (i.p.) route (5 ml kg^−1) at the dosage of 75 mg kg^−1 for three times every third day to elicit chronic bladder irritation, as previously described ([Vizzard et al., 1996]).
DF2755A was administered by oral gavage (2 ml kg^−1) at different doses and times before, during, or after CYP treatment, as specified hereunder. DF2755A dosages were chosen based on previous studies that described pharmacokinetics, pharmacodynamics, and pharmacological characterization of the compound ([Lopes et al., 2016]).
Acute treatment: DF2755A was administered 24 h after the last CYP administration at 3, 7, 10, and 30 mg kg^−1.
Chronic preventive treatment: DF2755A was administered 12 h before the first CYP administration (20 mg kg^−1) and then twice daily (7 mg kg^−1) for 7 days during IC development.
Chronic therapeutic treatment: DF2755A was administered twice daily for 7 days at 7 mg kg^−1, starting from 24 h after the last CYP injection.
On the day of the test, each rat was placed individually in a clear plastic testing box with a grid floor and allowed to acclimatize for at least 10 min. Peripheral sensitivity in response to mechanical stimuli was determined using Von Frey monofilaments (1-2-4-8-15-26-60–100 g; Ugo Basile, Comerio, Varese, Italy) applied in the lower abdominal area (close to the urinary bladder) and on both hind paw plantar surfaces (to evaluate referred pain).
Each Von Frey monofilament was applied five times at the level of abdomen and three times at the level of each paw, in an ascending order of strength at interval of 5 s. A stimulus-induced response was considered positive when the paw was sharply withdrawn, paw licking occurred, or the animal flinched upon removal of the filament.
Behavioral testing was performed at different times: • 1) before CYP administration, in order to acquire basal values; • 2) after CYP administration and before DF2755A treatment, in order to verify the pathology induction and acquire pre-treatment values; • 3) at different times after DF2755A treatment, in order to acquire post-treatment values, specifically at 2 and 18 h after the last treatment.

CXCL1 = CXCL1 mRNA expression in F11 cells (RT PCR); assay type: cell-based; conditions: DF2755A 1 µM + CYP 100 nM
From the text: (§1) For these experiments, cells at 18th passage were used.
(§2) Triplicate samples were run for each gene.

TRPV1 = TRPV1 protein level in F11 cells (Western blotting); assay type: cell-based; conditions: DF2755A 1 µM + CYP 100 nM
From the text: as §1, §2
Control and treated F11 cells were collected and lysed in an ice-cold RIPA buffer containing protease and phosphatase inhibitor cocktail (Sigma-Aldrich, United States). The extracted proteins were quantified using BCA assay (Thermo, United States). NuPAGE lithium dodecyl sulfate sample buffer (Cat#NP007, Thermo, United States) and NuPAGE sample reducing agent (Cat#NP0004, Thermo, United States) were added to the samples and then put in the Thermoblock (Eppendorf, United Kingdom) at 75°C for 10 min. Protein lysates (30 μg) were separated on NuPAGE bis–tris glycine gradient precast gel (Cat#NP0321PK2, Invitrogen, United States) and electroblotted on a PVDF membrane (Cat#IPVH00010, Millipore, United States) using a semi-dry system (Thermo, United States). Non-specific binding sites were blocked by blocking solution (Cat#000105, Invitrogen, United States) for 15 min at RT. […] The relative densities of the immunoreactive bands were determined and normalized with respect to actin, using Fiji software. […]

CXCL5 = CXCL5 ELISA in bladder tissue; assay type: in vivo, rat; conditions: preventive: 20 mg kg^−1 + 7 mg kg^−1 twice daily for 7 days, CYP rats
Experimental: Animals pre-treated with the vehicle or a single high oral dose of DF2755A (20 mg kg^−1; 12 h before the first CYP administration) followed by repeated lower doses administration (7 mg kg^−1 twice daily for 7 days) during IC development were deeply anesthetized with isoflurane (4%) and then killed.
After killing, rat abdomen was opened through a midline incision, and bladder and proximal urethra were exposed. A catheter was inserted into the bladder through the urethra and a loose ligature was placed around the neck of the urinary bladder. Bladder was inflated with saline via the catheter to slightly distend the bladder and ligature was tightened to maintain proper distension. Bladder was then excised cutting above the insertion point of ureters, and therefore the bladder neck was not included into the bladder sample. […] One piece (B1) was placed in Eppendorf, then snap-frozen in liquid nitrogen, and stored at −80°C until quantification using ELISA assay. […] For the microscopic observations of bladder inflammation, the following parameters were analyzed: bladder edema in scores (n = 10/group), bladder hemorrhage in scores (n = 10/group), urothelial loss in scores (n = 10/group), and total inflammatory score, which was calculated by adding all the individual lesion scores (n = 10/group). […]

[2] = acute oral treatment 24 h after last CYP, abdomen and hind paw, 2 h after administration
[3] = preventive: 20 mg kg^−1 12 h before first CYP, then 7 mg kg^−1 twice daily for 7 days p.o., 24 h after last CYP
[4] = therapeutic 7 mg kg^−1 twice daily for 7 days, 3 and 7 days after treatment discontinuation
[5] = therapeutic 7 mg kg^−1 twice daily for 7 days, 18 h after the last administration

SMILES: C[C@H](C(=O)[O-])c1ccc(Nc2nc(C(F)(F)F)cs2)cc1.[Na+] [DF2755A, sodium (2S)-2-(4-{[4-(trifluoromethyl)-1,3-thiazol-2-yl]amino}phenyl)propanoate]
- dose at which the antinociceptive effects reached a plateau [1, 2]: 7 mg/kg
- dose from which the antinociceptive effect was statistically significant [1, 2]: 3 mg/kg
- decrease of mechanical stimulus threshold versus basal values, hind paws [1, 3]: 17%
- decrease of mechanical stimulus threshold versus basal values, low abdomen [1, 3]: about 30%
- duration of anti-hyperalgesic effect after treatment discontinuation ([1]; therapeutic 7 mg kg^−1 twice daily for 7 days): up to 7 days
- decrease of the threshold to mechanical stimulus, hind paw plantar surfaces [1, 4]: 40%
- reduction of the threshold to mechanical stimulus, low abdomen [1, 4]: 53%
- decrease of mechanical stimulus threshold, low abdomen [1, 5]: 55%
- decrease of the threshold to mechanical stimulus, hind paw plantar surfaces [1, 5]: 33%
- reduction of the threshold to mechanical stimuli, low abdomen ([1]; therapeutic: 7 mg kg^−1 twice daily for 7 days p.o. from 24 h after last CYP, 2 h after last treatment (Figure 4A)): 24%
- decrease of the threshold to mechanical stimuli, hind paw plantar surfaces ([1]; therapeutic: 7 mg kg^−1 twice daily for 7 days p.o. from 24 h after last CYP, 2 h after last treatment (Figure 4B)): 4%
- CXCL1 mRNA expression in CYP-exposed cells (CXCL1): restored the mRNA expression of all the targets to control values
- TRPV1 protein level in CYP-exposed cells (TRPV1): restored to control expression
- bladder tissue expression of CXCL5 versus vehicle-treated rats (CXCL5): strongly inhibited
